The text below walks through data of US20170152258A9, “Substituted Pyridopyrazines as Syk Inhibitors” (HUTCHISON MEDIPHARMA LIMITED, priority 2012, published 2017).

The structures appear in SMILES notation.

As a reminder, the IC50 is the concentration needed to halve the response being measured.

In one assay the target is T1, VEGFR-2 (KDR) (Homo sapiens, UniProt P35968).
T1 construct: purchased Invitrogen PV3660
Put plainly: Transcreener Kinase Assay of VEGFR-2 (KDR). The assay is classed as biochemical. The settings on record: recombinant human KDR, Transcreener FP. The protocol: Transcreener Kinase Assay of VEGFR-2 (KDR)
• 1) Transcreenen™ KINASE Assy kit: Bellbrook Labs., 3003-10K; • 2) Recombinant human KDR: Invitrogen, PV3660; • 3) Poly E4Y (substrate): Sigma, P0275; 5 mg/mL, dissolved in MilliQ water; • 4) Assay buffer: 67 mM HEPES, 0.013% Triton X-100, 27 mM MgCl2, 0.67 mM MnCl2, 1.25 mM DTT, PH 7.4; • 5) 10 mM ATP: Invitrogen, PV3227; • 6) 500 mM EDTA: Invitrogen, 15575-038; • 7) 96 well black Greiner plate: Greiner, 675076.
• 1) Dilute the compound to 5 folds of final concentrations, keeping the DMSO concentration at 5%. The final concentrations are 1, 0.33, 0.11, 0.037, 0.012, 0.004, 0.0014, 0.0005 μM; and the final concentration of DMSO is 1%. • 2) Prepare Enzyme/Substrate stock, Recombinant human KDR and Poly E4Y are both diluted in assay buffer. The final concentration is KDR (0.3 ng/μL), Poly E4Y (62.5 ng/μL). […]
Wherein: • 1) Compound well [ADP] represents the ADP concentration of compound well. • 2) Positive control well [ADP] represents the ADP concentration of 5% DMSO well • 3) Conversion of mP value to ADP concentration based on the formula which determined by standard curve. […] (www.bellbrooklabs.com). • IC50: calculated using XL-Fit 2.0 software.

The next assay concerns RBL-2H3 cells. Kind of assay: IgE-induced Beta-hexosaminidase secretion in RBL-2H3 cells. The assay is classed as cell-based. The settings on record: Rattus norvegicus, RBL-2H3, IgE-induced Beta-hexosaminidase secretion, DNP-BSA stimulation. A digest of the protocol: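 RBL-2H3 cells sensitized overnight with 0.5 ug/ml SPE-7 IgE, washed, preincubated with compound 20 min at 37° C, then stimulated with DNP-BSA (150 ng/mL stock) for 45 min. Released β-hexosaminidase measured on supernatant with 1 mM 4-nitrophenyl N-acetyl-β-D-glucosaminide, pH 4.5, 1.5 hr at 37° C; absorbance 405 nm after carbonate quench.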

T1 sequence (P35968 20-1356): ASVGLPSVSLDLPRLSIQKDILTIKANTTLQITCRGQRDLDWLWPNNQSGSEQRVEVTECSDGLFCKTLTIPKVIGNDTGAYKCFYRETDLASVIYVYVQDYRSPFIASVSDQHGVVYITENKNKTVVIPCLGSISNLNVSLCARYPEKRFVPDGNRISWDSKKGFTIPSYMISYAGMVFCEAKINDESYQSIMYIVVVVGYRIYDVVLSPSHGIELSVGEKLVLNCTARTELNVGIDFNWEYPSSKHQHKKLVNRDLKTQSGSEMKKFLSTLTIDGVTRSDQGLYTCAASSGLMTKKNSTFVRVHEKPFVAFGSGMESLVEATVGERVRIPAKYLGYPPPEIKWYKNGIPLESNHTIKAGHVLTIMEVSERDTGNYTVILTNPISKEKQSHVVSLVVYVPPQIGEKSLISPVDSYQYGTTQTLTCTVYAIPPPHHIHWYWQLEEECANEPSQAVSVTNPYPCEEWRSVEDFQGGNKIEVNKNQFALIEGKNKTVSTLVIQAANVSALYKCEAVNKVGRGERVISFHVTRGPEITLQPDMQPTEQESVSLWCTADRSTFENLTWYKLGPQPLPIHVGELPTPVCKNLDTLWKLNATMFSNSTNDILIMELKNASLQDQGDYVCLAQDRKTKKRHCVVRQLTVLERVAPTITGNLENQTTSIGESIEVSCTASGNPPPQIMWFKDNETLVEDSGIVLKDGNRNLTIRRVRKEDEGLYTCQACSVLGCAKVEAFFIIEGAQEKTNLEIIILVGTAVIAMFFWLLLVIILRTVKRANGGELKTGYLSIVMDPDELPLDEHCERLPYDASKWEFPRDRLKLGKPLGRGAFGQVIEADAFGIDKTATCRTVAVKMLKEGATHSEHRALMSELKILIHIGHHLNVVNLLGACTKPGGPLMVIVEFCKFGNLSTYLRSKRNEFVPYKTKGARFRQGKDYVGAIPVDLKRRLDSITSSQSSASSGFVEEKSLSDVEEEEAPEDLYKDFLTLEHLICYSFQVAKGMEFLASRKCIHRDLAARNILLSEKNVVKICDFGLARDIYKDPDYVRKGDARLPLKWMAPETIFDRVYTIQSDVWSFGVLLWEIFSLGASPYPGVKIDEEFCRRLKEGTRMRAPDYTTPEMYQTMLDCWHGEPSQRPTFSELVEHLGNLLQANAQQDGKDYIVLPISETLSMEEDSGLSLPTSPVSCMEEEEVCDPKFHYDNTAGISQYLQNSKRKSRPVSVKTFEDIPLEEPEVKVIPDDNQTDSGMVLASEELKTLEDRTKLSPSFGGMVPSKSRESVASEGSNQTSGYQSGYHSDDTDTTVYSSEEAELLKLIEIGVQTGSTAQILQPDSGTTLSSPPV

Regarding `CC(=O)N1CCO[C@H](COc2nc(-c3ccc4c(c3)CCOC4(C)C)cc3nccnc23)C1` [Compound 300], the concentration for half-maximal inhibition (IC50) was 1130 nM on VEGFR-2 (KDR) and 52 nM in the assay on RBL-2H3 cells.
As to `CC(C)(O)c1ccc(-c2cc3nccnc3c(OC[C@@H]3CN(S(C)(=O)=O)CCO3)n2)cc1` [Compound 219], the IC50 is 748 nM on VEGFR-2 (KDR) and 37 nM in the assay on RBL-2H3 cells.
